# Where “and” joins values, the source holds several entries; their conditions need not be identical. Identical values can stand only once. Like-named read-outs stand apart in the source and are kept apart here.
# Experiments:
# Type in all cases: cell-based
# [1] = biological target: human Nav1.5 channels (Homo sapiens (Human), UniProt Q14524); test: FRET assay (FDSS); conditions: HEK293 cells expressing human Nav1.5, read-out: activity (IC50) against Nav1.5
# Procedure: (§1) This screen is used to determine the effects of compounds on human Nav1.8, and human Nav1.5 channels, utilizing the cell imaging technology by Hamamatsu Photonics's Functional Drug Screening System (FDSS). The changes of membrane potential are monitored with fluorescent membrane potential dye pair, DiSBAC2(3) and CC2-DMPE, using FRET technology.
# (§2) HEK293 cells expressing human Nav1.8 channels or human Nav1.5 channels are grown in T225 flasks, in a 5% CO2 humidified incubator to about 80% confluence. Media composition of HEK293 cells expressing human Nav1.8 channels consists of Dulbecco's Modified Eagle Medium (high glucose), 10% fetal calf serum (FCS), 100 units/mL Penicillin, 100 microgram/mL Streptomycin, 200 microgram/mL Zeocin and 500 microgram/mL Geneticine. HEK293 cells expressing human Nav1.5 channels are maintained in Dulbecco's Modified Eagle Medium (high glucose) supplemented with 10% fetal calf serum (FCS), 100 units/mL Penicillin, 100 microgram/mL Streptomycin and 500 microgram/mL Geneticine.
# (§3) Seed each cell lines (1.5×10^4 cells/well) into 384-well plates prior to experimentation.
# (§4) Incubate at 37° C. in 5% CO2 for 24 hours.
# (§5) Wash each well with buffer #1 (140 mM NaCl, 4.5 mM KCl, 10 mM D-Glucose, 2 mM CaCl2, 1 mM MgCl2, 10 mM HEPES, pH 7.4 adjusted with. NaOH) twice using plate washer.
# (§6) Add 1st loading solution containing 7.5 microM CC2-DMPE and 0.06% Pluronic F-127 in buffer #1.
# (§7) Incubate the plate at rt in dark for 0.5 hours.
# (§8) Wash each well with buffer #2 (160 mM Choline, 10 mM D-Glucose, 0.1 mM CaCl2, 1 mM MgCl2, 1.0 mM HEPES, pH 7.4 adjusted with KOH) twice using plate washer.
# (§9) Add 2nd loading solution containing 75 microM DiSBAC2(3), 2.5 mM Xylene Fast Yellow, 10 microM Deltamethrin or 100 microM veratridine and 0.02% Pluronic F-127 in buffer #2.
# (§10) Add compound solutions into the assay plate and leave the plate for 30 minutes under the dark at rt.
# (§11) Monitor the fluorescent membrane potentials before and after the addition of buffer #2 by FDSS.
# (§12) The data is analyzed and reported as normalized ratios of intensities measured in the 465 nm and 575 nm channels. The process of calculating these ratios is performed as follows: FR=(FI465Max/FI575Min)−(FI465B/FI575B) [Math.2]
# (§13) “FI465B”=the mean of fluorescence intensity as baseline (before Na^+ ligand addition) at 465 nm
# (§14) “FI575B”=the mean of fluorescence intensity as baseline (before Na^+ ligand addition) at 575 nm
# (§15) “FI465Max”=maximum fluorescence intensity at 465 nm after Na^+ stimulation
# (§16) “FI575Min”=minimum fluorescence intensity at 575 nm after Na^+ stimulation
# (§17) This analysis is performed using a computerized specific program designed for FDSS generated data. Fluorescence ratio values are plotted using XLfit to determine an IC50 value for each compound.
# [2] = biological target: human Nav1.8 channels (Homo sapiens (Human), UniProt Q9Y5Y9); test: FRET assay (FDSS)
# Procedure: as §1, §2, §3, §4, §5, §6, §7, §8, §9, §10, §11, §12, §13, §14, §15, §16, §17
# [3] = biological target: T1, Nav1.7 (Homo sapiens (Human), UniProt Q15858); test: Electrophysiology assay, whole cell patch clamp, affinity to inactivated state; conditions: read-out: activities (Ki) against Nav1.7
# Procedure: Whole cell patch clamp recording is used to assess the efficacy or selectivity of Na channel blocker on human voltage gated sodium channels. Na channel expressing cells are dissociated by 0.05% Trypsine-EDTA or Accutase, and then seeded on cover glass for 2-24 hrs.
# Manual patch clamp recordings are conducted at rt using the voltage-clamp amplifier (Axon Instruments or HEKA electronik). Electrodes are pulled with P-97 electrode puller (Sutter Instrument). The electrode resistances are 1-3 MOhm when intracellular solution is filled. Currents are lowpass filtered between 2-5 kHz and digitally sampled at 10 kHz.
# The extracellular and intercellular solutions for human Nav1.7 and Nav1.5 consist of the following composition: […]
# The normalized steady-state inactivation curve is constructed using 2 sec (for vehicle) or 60 sec (for drugs) conditioning pulse to different potentials followed immediately by the test pulse to −10 mV. […] The affinity of test compound to resting state of Na channels (Kresting or Kr) is assessed by depolarizing test pulse from a negative holding potential of −130 mV, where virtually all channels are in the resting state. Kr value is calculated by a conventional 1:1 binding model: Kresting(Kr)={[drug]Imax,drug/(Imax, control−Imax, drug)} [Math.8] • where Kresting (=Kr) is a dissociation constant for the resting state and [drug] is compound concentration. […]
# [4] = biological target: T1, Nav1.7; test: EFS-FRET assay
# Procedure: This screen is used to determine the effects of compounds on human Nav1.7 channels, utilizing electrical field stimulation (EFS) system in 96-well plate format on FDSS (Hamamatsu Photonics) platform. The change of membrane potential is monitored with FRET dye pair, DiSBAC2(3) and PTS 18.
# CHO (Chinese hamster ovary) cells expressing human Nav1.7 channels are grown in T225 flasks, in a 5% CO2 humidified incubator to about 80% confluence. Media composition consists of HAM/F^.12 with Glutamax I, 10% FCS, 100 units/mL penicillin and 100 microgram/mL hygromycin.
# Seed each cell lines (1×10^5 cells/well) into 96-well plates prior to experimentation.
# Incubate at 37° C. in 5% CO2, for 24 hours.
# Wash each well with assay buffer (140 mM NaCl, […], 10 mM D-Glucose, 2 mM CaCl2, 1 mM MgCl2, 10 mM HEPES, pH 7.4 adjusted with NaOH) twice.
# Add 1st loading solution containing 10 microM PTS18 and 0.06% Pluronic F-127 in assay buffer.
# Incubate the plate at rt in dark for 1 hour. • Remove 1st loading solution and add 2nd loading solution containing 12.5 microM DiSBAC2(3), 1.25 mM Xylene Fast Yellow and 0.0075% Pluronic F-127 in assay buffer. • Place the plate under the dark at rt for 25 minutes. • Add compound solutions into the assay plate. • Set the assay plate in FDSS and place an EFS device on the plate. • Measure EFS-induced fluorescent response by FDSS.
# The data are analyzed and reported as normalized ratios of intensities measured at […]. The process of calculating these ratios is performed as follows:
# This analysis is performed using a computerized specific program designed for
# FDSS generated data. Fluorescence ratio values are plotted using XLfit to determine an IC50 value for each, compound.
# [5] = EFS-FRET, CHO cells expressing human Nav1.7, read-out: IC50 against Nav1.7
# [6] = Table 1, read-out: Nav1.7 activity (IC50)
# Sequence of human Nav1.8 channels (Q9Y5Y9 whole entry): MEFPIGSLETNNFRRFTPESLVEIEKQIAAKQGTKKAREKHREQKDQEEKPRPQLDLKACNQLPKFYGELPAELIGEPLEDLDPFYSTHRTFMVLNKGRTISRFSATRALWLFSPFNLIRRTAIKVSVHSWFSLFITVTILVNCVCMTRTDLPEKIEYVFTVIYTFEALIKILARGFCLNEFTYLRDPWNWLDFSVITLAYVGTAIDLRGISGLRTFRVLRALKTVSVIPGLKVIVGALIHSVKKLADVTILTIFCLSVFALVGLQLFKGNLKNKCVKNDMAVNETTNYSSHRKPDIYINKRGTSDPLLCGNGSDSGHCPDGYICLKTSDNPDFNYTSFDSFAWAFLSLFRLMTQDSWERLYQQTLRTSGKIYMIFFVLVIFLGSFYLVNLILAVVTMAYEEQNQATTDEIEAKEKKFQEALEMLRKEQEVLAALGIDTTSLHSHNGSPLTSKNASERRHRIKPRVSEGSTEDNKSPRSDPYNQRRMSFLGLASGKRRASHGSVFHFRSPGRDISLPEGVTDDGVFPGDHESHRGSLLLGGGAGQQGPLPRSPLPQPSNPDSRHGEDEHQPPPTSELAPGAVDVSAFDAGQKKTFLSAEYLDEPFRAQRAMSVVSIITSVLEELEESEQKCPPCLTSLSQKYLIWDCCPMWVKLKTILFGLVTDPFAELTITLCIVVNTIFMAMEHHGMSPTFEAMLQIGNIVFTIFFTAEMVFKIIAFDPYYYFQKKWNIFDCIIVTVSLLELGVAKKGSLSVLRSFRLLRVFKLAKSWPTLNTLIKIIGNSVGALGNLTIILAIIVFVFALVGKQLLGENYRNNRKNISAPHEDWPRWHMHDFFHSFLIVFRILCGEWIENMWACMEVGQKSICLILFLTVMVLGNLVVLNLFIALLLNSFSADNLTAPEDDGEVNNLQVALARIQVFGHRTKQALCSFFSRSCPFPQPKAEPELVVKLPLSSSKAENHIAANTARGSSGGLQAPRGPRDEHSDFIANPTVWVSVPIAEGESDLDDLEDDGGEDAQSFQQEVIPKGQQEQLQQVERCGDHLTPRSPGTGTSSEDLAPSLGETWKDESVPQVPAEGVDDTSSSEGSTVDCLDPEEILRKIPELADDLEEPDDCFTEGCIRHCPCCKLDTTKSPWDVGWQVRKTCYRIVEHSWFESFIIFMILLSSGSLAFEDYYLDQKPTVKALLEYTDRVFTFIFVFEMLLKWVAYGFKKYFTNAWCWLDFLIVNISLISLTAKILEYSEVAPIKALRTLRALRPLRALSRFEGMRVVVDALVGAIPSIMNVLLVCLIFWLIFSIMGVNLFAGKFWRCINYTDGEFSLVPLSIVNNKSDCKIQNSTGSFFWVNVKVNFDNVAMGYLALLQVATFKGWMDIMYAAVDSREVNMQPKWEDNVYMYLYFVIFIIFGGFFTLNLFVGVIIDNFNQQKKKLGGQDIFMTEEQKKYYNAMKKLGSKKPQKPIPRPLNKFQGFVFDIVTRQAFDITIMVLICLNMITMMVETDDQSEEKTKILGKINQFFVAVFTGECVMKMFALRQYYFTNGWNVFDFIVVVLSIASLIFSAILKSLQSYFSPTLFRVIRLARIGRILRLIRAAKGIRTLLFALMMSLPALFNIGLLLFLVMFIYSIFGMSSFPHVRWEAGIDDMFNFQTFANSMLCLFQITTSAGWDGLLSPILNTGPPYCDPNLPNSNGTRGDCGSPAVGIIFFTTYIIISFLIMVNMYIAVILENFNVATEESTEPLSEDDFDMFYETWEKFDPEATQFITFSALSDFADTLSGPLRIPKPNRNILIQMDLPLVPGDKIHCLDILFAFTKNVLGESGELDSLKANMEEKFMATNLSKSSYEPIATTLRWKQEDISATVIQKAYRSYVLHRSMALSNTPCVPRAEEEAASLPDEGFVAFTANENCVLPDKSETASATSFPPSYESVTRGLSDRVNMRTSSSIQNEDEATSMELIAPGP
# T1 sequence (Q15858 whole entry): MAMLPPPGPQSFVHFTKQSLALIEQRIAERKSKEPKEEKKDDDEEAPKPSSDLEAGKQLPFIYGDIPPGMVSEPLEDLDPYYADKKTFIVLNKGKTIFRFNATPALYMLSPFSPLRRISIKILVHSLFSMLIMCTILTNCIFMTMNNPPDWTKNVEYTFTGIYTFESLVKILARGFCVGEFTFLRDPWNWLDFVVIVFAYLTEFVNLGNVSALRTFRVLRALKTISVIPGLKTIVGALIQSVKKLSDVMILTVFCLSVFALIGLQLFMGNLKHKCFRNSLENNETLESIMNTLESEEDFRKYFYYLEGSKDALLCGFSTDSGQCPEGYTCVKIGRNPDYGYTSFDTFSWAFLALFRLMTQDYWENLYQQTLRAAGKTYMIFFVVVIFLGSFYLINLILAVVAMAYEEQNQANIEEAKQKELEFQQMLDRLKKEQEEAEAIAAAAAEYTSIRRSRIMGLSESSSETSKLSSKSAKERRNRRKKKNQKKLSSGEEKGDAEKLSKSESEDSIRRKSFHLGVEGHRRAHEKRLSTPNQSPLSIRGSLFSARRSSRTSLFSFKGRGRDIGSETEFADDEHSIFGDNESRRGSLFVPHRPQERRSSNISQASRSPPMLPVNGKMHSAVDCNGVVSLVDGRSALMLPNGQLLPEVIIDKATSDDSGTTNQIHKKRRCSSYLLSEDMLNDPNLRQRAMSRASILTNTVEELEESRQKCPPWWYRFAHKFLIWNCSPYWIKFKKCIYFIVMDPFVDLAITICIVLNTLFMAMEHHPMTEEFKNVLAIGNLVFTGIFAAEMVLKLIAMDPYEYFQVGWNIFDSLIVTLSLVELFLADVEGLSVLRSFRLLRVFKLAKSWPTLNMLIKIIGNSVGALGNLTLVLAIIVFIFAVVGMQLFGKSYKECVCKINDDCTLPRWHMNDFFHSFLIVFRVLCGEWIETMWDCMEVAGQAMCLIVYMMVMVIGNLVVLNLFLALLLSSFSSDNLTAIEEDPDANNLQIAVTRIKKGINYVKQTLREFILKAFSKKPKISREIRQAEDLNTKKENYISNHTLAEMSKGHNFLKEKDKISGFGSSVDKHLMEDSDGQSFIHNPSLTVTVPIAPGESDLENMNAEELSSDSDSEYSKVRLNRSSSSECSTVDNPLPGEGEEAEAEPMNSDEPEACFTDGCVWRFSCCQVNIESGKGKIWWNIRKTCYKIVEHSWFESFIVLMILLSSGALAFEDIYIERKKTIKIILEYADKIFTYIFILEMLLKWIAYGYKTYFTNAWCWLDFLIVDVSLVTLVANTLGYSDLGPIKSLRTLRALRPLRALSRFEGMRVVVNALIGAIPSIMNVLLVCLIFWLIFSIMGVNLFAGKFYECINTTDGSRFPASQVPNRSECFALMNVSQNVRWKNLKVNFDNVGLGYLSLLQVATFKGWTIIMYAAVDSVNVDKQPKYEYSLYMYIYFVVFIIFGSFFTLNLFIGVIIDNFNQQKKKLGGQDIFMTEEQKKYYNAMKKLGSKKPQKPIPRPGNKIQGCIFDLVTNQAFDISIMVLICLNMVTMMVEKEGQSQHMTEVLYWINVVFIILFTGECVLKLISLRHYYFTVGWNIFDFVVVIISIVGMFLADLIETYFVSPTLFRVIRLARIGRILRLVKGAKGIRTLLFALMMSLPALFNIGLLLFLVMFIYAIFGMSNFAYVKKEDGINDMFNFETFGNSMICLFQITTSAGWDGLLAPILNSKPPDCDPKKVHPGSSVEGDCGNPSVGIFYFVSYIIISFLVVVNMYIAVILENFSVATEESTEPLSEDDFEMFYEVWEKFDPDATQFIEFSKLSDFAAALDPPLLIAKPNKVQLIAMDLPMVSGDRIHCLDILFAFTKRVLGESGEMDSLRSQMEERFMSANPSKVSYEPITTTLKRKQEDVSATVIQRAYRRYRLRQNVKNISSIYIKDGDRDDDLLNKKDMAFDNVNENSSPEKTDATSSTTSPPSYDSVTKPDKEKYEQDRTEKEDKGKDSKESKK
"IC50 [4, 5]",Structure (SMILES),other results
,"CC(CNC(=O)c1ccnc(NC(=O)C2CC2)c1)Oc1ccc(C(F)(F)F)cc1 (centres unmarked) [Example 1, 2-(cyclopropanecarboxamido)-N-(2-(4-(trifluoromethyl)phenoxy)propyl)isonicotinamide]","IC50 [1]: > 30 µM; IC50 ([2]; FRET, HEK293 cells expressing human Nav1.8, read-out: IC50 against Nav1.8): 0.65 µM"
< 0.5 µM,CCC(=O)Nc1cc(C(=O)NCCNc2ncc(C(F)(F)F)cc2Cl)ccn1 [Example 3],Ki [3]: 0.96 µM
< 0.5 µM,CC(=O)Nc1cc(C(=O)NCCNc2ncc(C(F)(F)F)cc2Cl)cc(C)n1 [Example 4],Ki [3]: 0.52 µM
0.37 µM and < 0.5 µM,CC(C)C(=O)Nc1cc(C(=O)NCCOc2ncc(C(F)(F)F)cc2Cl)ccn1 [Example 13],"activity against Nav1.8 [2]: good activity; IC50 [4, 6]: 0.37 µM"
0.19 µM and < 0.5 µM,Cc1cc(C(=O)NCCOc2ncc(C(F)(F)F)cc2Cl)cc(NC(=O)C(C)C)n1 [Example 35],"activity against Nav1.8 [2]: good activity; IC50 [4, 6]: 0.19 µM"
< 0.5 µM,CCC(=O)Nc1cc(C(=O)NCCOc2ccc(C(F)(F)F)cc2OC)ccn1 [Example 127],
< 0.5 µM,COc1cc(C(F)(F)F)ccc1OCCNC(=O)c1cc(C)nc(NC(C)=O)c1 [Example 128],
< 0.5 µM,CCC(=O)Nc1cc(C(=O)NCCOc2ccc(C(F)(F)F)cc2OC)cc(C)n1 [Example 129],
< 0.5 µM,COc1cc(C(F)(F)F)ccc1OCCNC(=O)c1ccnc(NC(=O)C2CC2)c1 [Example 130],
< 0.5 µM,COc1cc(C(F)(F)F)ccc1OCCNC(=O)c1ccnc(NC(=O)C(C)C)c1 [Example 131],
< 0.5 µM,COc1cc(C(F)(F)F)ccc1OCCNC(=O)c1cc(C)nc(NC(=O)C2CC2)c1 [Example 132],
< 0.5 µM,COc1cc(C(F)(F)F)ccc1OCCNC(=O)c1cc(C)nc(NC(=O)C(C)C)c1 [Example 133],
< 0.5 µM,COc1cc(C(F)(F)F)ccc1OCCNC(=O)c1ccnc(NC(=O)C2CC2)n1 [Example 134],
< 0.5 µM,CC(=O)Nc1cc(C(=O)NCCOc2ccc(C(F)(F)F)cc2C)ccn1 [Example 138],
< 0.5 µM,CCC(=O)Nc1cc(C(=O)NCCOc2ccc(C(F)(F)F)cc2C)ccn1 [Example 139],
< 0.5 µM,CC(=O)Nc1cc(C(=O)NCCOc2ccc(C(F)(F)F)cc2C)cc(C)n1 [Example 140],
< 0.5 µM,CCC(=O)Nc1cc(C(=O)NCCOc2ccc(C(F)(F)F)cc2C)cc(C)n1 [Example 141],
< 0.5 µM,Cc1cc(C(F)(F)F)ccc1OCCNC(=O)c1ccnc(NC(=O)C2CC2)c1 [Example 142],
< 0.5 µM,Cc1cc(C(F)(F)F)ccc1OCCNC(=O)c1ccnc(NC(=O)C(C)C)c1 [Example 143],
< 0.5 µM,Cc1cc(C(=O)NCCOc2ccc(C(F)(F)F)cc2C)cc(NC(=O)C(C)C)n1 [Example 145],
< 0.5 µM,Cc1cc(C(F)(F)F)ccc1OCCNC(=O)c1ccnc(NC(=O)C2CC2)n1 [Example 146],
< 0.5 µM,CCC(=O)Nc1cc(C(=O)NCCOc2ccc(OC(F)(F)F)c(F)c2)ccn1 [Example 148],
< 0.5 µM,CC(C)C(=O)Nc1cc(C(=O)NCCOc2ccc(OC(F)(F)F)c(F)c2)ccn1 [Example 149],
< 0.5 µM,O=C(NCCOc1ccc(OC(F)(F)F)c(F)c1)c1ccnc(NC(=O)C2CC2)n1 [Example 150],
< 0.5 µM,O=C(NCCOc1ccc(OC(F)(F)F)c(F)c1)c1ccnc(NC(=O)C2CC2)c1 [Example 151],
< 0.5 µM,CC(=O)Nc1cc(C(=O)NCCOc2ccc(OC(F)(F)F)c(F)c2)cc(C)n1 [Example 152],
< 0.5 µM,CC(=O)Nc1cc(C(=O)NCCOc2ccc(OC(F)(F)F)c(F)c2)ccn1 [Example 154],

Structure (SMILES),"IC50 [4, 5]",other results
"O=C(NCCOc1ncc(C(F)(F)F)cc1Cl)c1ncccc1Cl [No. 1-3, reference compound]",> 3 µM,"IC50 [4, 6]: > 3 µM"
"O=C(NCCOc1ncc(C(F)(F)F)cc1Cl)c1cccnc1C(F)(F)F [No. 1-63, reference compound]",> 3 µM,"IC50 [4, 6]: > 3 µM"
